Data: patent US20250170127A1, “RE-SENSITIZING MULTIDRUG-RESISTANT (MDR) GRAM-NEGATIVE BACTERIA TO COLISTIN USING IONOPHORES” (The Regents of the University of Colorado, a body corporate, priority 2022, published 2025)
In brackets after ≈: the same amount, converted by molar mass. Where two headings read alike, the source gives them in different places.

What was measured:
[1] = test system: E. coli AR-0349; assay: MICs of a panel of 9 antibiotics with and without compound 3; assay type: cell-based; details: for INT (S-R interpretation): CLSI 2021, M100, Ed 31; for MIC: antibiotic alone, multidrug-resistant E. coli; for MIC (+3): in the presence of 1 μg/mL of compound 3
[2] = test system: E. coli AR-0493; assay: Minimum re-sensitizing concentration (MRC) in the presence of colistin; assay type: cell-based; details: in the presence of 2 μg/mL colistin, E. coli AR-0493
Procedure: These 10 compounds were tested for their MICs and minimum re-sensitizing concentrations (MRCs) in the presence colistin at 2 μg/mL in E. coli AR-0493.
The present inventors further conducted MRC screens of selected compounds from groups 2-5 in AR-0493. Compound were tested against AR-0493 with compound X+2 μg/mL Colistin.
All compounds were tested for their respective minimum resensitizing concentrations (MRCs) for colistin against E. coli. AR0493, a MDR strain from CDC and FDA Antibiotic Resistance Bank. […] For the symmetrical bisanilino series, 7a-p, electron-donating alkyl and alkoxy groups (entries 7a-g, Table 5) at various positions of the phenyl rings were investigated. […] Three asymmetric bisanilino analogs (7q-s, Table 5) were synthesized based on the SARs of the monoanilino analogs 8a-p (vide infra).
(§1) General Methods. MDR strains E. coli AR-0493, AR-0346, and AR-0538, Salmonella Enteritidis AR-0496, Salmonella Typhimurium AR-0635, K. pneumoniae AR-0497, A. baumannii AR-0300 and AR-0310 were all obtained from the CDC & FDA Antibiotic Resistance Isolate Bank. E. coli K-12 was a gift from the Copley lab (Department of MCD Biology, University of Colorado Boulder). HeLa cells were purchased from the ATCC. All bacterial strains were grown on trypticase soy agar supplemented with 5% sheep blood (BAP). Bacteria were then cultured in Luria-Bertani (LB) medium at 35° C. until they achieve the log phase before screening or antimicrobial testing using CAMHB media. MIC, MRC, and checkerboard analyses and mammalian growth inhibition analyses in Hela cells were performed as described previously. More details are given in Supporting information.

[3] = test system: E. coli AR-0493; assay: MIC, CLSI broth microdilution, substance alone; assay type: cell-based
Procedure: A MDR E. coli strain AR-0493 (a.k.a., ATCC BAA-3170) was obtained from the CDC and FDA Antibiotic Resistance Bank and used for the initial screen. […] Considering the difficulties on the discovery of novel antimicrobial reagents against Gram-negative bacteria, we chose to screen the fragment-based library of 3,200 compounds from TimTec (Tampa, FL). […] The screen used a modified broth microdilution assay.
These 10 compounds were tested for their MICs and minimum re-sensitizing concentrations (MRCs) in the presence colistin at 2 μg/mL in E. coli AR-0493. […] To evaluate their toxicity in mammalian cells, the present inventors treated human epithelial adenocarcinoma HeLa cells with each compound at a wide range of concentrations. […]
as §1

[4] = test system: HeLa cells; assay: in vitro; assay type: cell-based, human
Procedure: These 10 compounds were tested for their MICs and minimum re-sensitizing concentrations (MRCs) in the presence colistin at 2 μg/mL in E. coli AR-0493. […] To evaluate their toxicity in mammalian cells, the present inventors treated human epithelial adenocarcinoma HeLa cells with each compound at a wide range of concentrations.
To evaluate the mammalian toxicity of these analogs, Applicants tested them in cell viability assay using human cervical adenocarcinoma HeLa cells. Their respective half maximal growth inhibition concentration (GI50) was calculated using KaleidaGraph. The selectivity index (SI) for each compound was also calculated as the ratio of their GI50 and MRC. […] Therefore, Applicants selected two bisanilino analogs, 7l and 7m, that bear chlorines at the meta- and para-positions, respectively, of the phenyl groups for further characterization studies. […]. […] Their mammalian toxicities were also evaluated, and SIs calculated. […] Applicants we next explored the scope of analogs 71 and 7m their colistin-potentiating activity in 8 different MDR Gram negative bacteria with diverse genetic backgrounds and resistance mechanisms (Table 7). All strains were obtained from CDC and FDA Antibiotic Resistance Bank. For example, E. coli AR-0493 and K. pneumoniae AR-0497 carry the plasmid that contains the most prevalent mcr-1 gene. E. coli AR-0538, Salmonella Typhimurium AR-0539 and AR-0635 contain the mcr-2, 3, and 4 genes, respectively. These genes encode the phosphoethanolamine transferase, which was originated form the chromosome of A. baumannii, such as AR-0310. […]. A. baumannii AR-0310 appears more sensitive to these two compounds and the MICs of colistin was reduced to 0.25 μg/mL.
as §1

[5] = Escherichia coli, AR0349, read-out: MIC

## CO[C@H]1/C=C/O[C@@]2(C)Oc3c(C)c(O)c4c(O)c(c(/C=N/N5CCN(C)CC5)c(O)c4c3C2=O)NC(=O)/C(C)=C\C=C\[C@H](C)[C@H](O)[C@@H](C)[C@@H](O)[C@@H](C)[C@H](OC(C)=O)[C@@H]1C [Rifampicin]
[1]
  INT (S-R interpretation): R
  MIC (+3): 16 µg/mL
[1]; [5]
  MIC: 16 µg/mL (≈ 19.4 µM)

## Gentamicin
[1]
  INT (S-R interpretation): S
  MIC: 0.5 µg/mL
  MIC (+3): 0.5 µg/mL

## Polymyxin B
[1]
  INT (S-R interpretation): R
  MIC: 16 µg/mL
  MIC (+3): 1 µg/mL
[1]; by 1 μg/mL of compound 3
  fold of potentiation: 16 fold

## COc1ccc(Nc2nc3nonc3nc2O)cc1 [Compound 8g]
[2]
  MRC (minimum re-sensitizing concentration): >64 µg/mL

## Oc1nc2nonc2nc1Nc1cccc(F)c1 [Compound 8i]
[2]
  MRC (minimum re-sensitizing concentration): 64 µg/mL

## Clc1ccccc1Nc1nc2nonc2nc1Nc1ccccc1Cl [Compound 7k]
[2]
  MRC (minimum re-sensitizing concentration): 8 µg/mL

## Cc1ccccc1Nc1nc2nonc2nc1O [Compound 8b]
[2]
  MRC (minimum re-sensitizing concentration): 64 µg/mL

## Oc1nc2nonc2nc1Nc1cccc(OC(F)(F)F)c1 [Compound 8o]
[3]
  MIC: >64 µg/mL
[2]
  MRC (minimum re-sensitizing concentration): 4 µg/mL
[4]
  GI50: 24 µg/mL

## COc1cccc(Nc2nc3nonc3nc2O)c1 [Compound 8f]
[2]
  MRC (minimum re-sensitizing concentration): 16 µg/mL

## Cc1cccc(Nc2nc3nonc3nc2O)c1 [Compound 8c]
[2]; listed as 8c (2)
  MRC (minimum re-sensitizing concentration): 8 µg/mL

## Oc1nc2nonc2nc1Nc1ccccc1F [Compound 8h]
[2]
  MRC (minimum re-sensitizing concentration): 64 µg/mL

## Oc1nc2nonc2nc1Nc1ccccc1Cl [Compound 8k]
[2]
  MRC (minimum re-sensitizing concentration): 16 µg/mL

## Oc1nc2nonc2nc1Nc1ccccc1OC(F)(F)F [Compound 8n]
[2]
  MRC (minimum re-sensitizing concentration): >64 µg/mL

## COc1ccccc1Nc1nc2nonc2nc1Nc1cccc(OC(F)(F)F)c1 [Compound 7s]
[2]
  MRC (minimum re-sensitizing concentration): >64 µg/mL

## O=C(O)c1cn(C2CC2)c2cc(N3CCNCC3)c(F)cc2c1=O [Ciprofloxacin]
[1]; [5]
  MIC: 32 µg/mL (≈ 96.6 µM)
[1]
  MIC (+3): 32 µg/mL

## CN(C)[C@@H]1C(O)=C(C(N)=O)C(=O)[C@@]2(O)C(O)=C3C(=O)c4c(O)cccc4[C@@](C)(O)[C@H]3C[C@@H]12 [Tetracycline]
[1]
  INT (S-R interpretation): R
  MIC (+3): >64 µg/mL
[1]; [5]
  MIC: > 64 µg/mL

## Cc1cccc(Nc2nc3nonc3nc2Nc2cccc(OC(F)(F)F)c2)c1 [Compound 7r]
[3]
  MIC: >64 µg/mL
[2]
  MRC (minimum re-sensitizing concentration): 0.5 µg/mL
[4]
  GI50: 12 µg/mL

## COc1ccccc1Nc1nc2nonc2nc1O [Compound 8e]
[3]
  MIC: >64 µg/mL
[2]
  MRC (minimum re-sensitizing concentration): 4 µg/mL

## FC(F)(F)Oc1cccc(Nc2nc3nonc3nc2Nc2ccccc2)c1 [Compound 7q]
[2]
  MRC (minimum re-sensitizing concentration): 1 µg/mL

## Oc1nc2nonc2nc1Nc1cccc(Cl)c1 [Compound 8l]
[2]
  MRC (minimum re-sensitizing concentration): 16 µg/mL
